Values of other authors in patent US20070032466A1, “Drug containing chymase inhibitor as the active ingredient” (TEIJIN PHARMA LIMITED, priority 2003, published 2007).

Legend:
new onset of diabetes = conditions: large scale clinical tests (CARPPP, HOPE, LIFE studies)
mouse allergy model = conditions: oral administration
[1] = tested on: hamster model of myocardial infarction; conditions: administrated alone
[2] = tested on: canine model of myocardial infarction; conditions: oral administration

## CCOC(=O)[C@H](CCc1ccccc1)N[C@@H](C)C(=O)N1[C@H](C(=O)O)C[C@@H]2CCC[C@@H]21 [ramipril]
New onset of diabetes
  suppression of new onset of diabetes: suppress new onset of diabetes

## COC(=O)c1ccc2oc(C(=O)C(Cc3ccccc3)NC(=O)Cn3c(-c4ccccc4OC)ncc(N)c3=O)nc2c1 (stereo not drawn) [IV-I]
Mouse allergy model
  activity as a chymase inhibitor in a mouse allergy model: exhibit activity as a chymase inhibitor

## CCOc1ccccc1CC1C(=O)N(C(=O)NC(c2ccc(C)cc2)c2ccc(C)cc2)C1C(=O)c1ccc(C(=O)O)cc1 (stereo not drawn) [4-[1-{[bis(4-methylphenyl)methyl]carbamoyl}-3-(2-ethoxybenzyl)-4-oxoazetizin-2-yloyl]benzoic acid]
[1]
  effect on a hamster model of myocardial infarction: has an effect

## O=CNc1cnc(-c2ccccc2)n(CC(=O)NC(Cc2ccccc2)C(=O)C(=O)CCCOc2ccccn2)c1=O (stereo not drawn) [III-I]
[2]
  effectiveness in a canine model of myocardial infarction: effective

## C[C@H](CS)C(=O)N1CCC[C@H]1C(=O)O [captopril]
New onset of diabetes
  suppression of new onset of diabetes: suppress new onset of diabetes

## CCCCc1nc(Cl)c(CO)n1Cc1ccc(-c2ccccc2-c2nn[nH]n2)cc1 [losartan]
New onset of diabetes
  suppression of new onset of diabetes: suppress new onset of diabetes
